# From ChEMBL document CHEMBL1201862, “PubChem BioAssay data set” (2004)
#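 Cells were grown in 96-well plates and exposed to each compound for 48 hours at five concentrations; endpoints were interpolated linearly between bracketing concentrations, or set to the highest concentration if not reached. Abbreviation: GI50, concentration required for 50% inhibition of growth.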 The source made the active and inactive calls. No stated cut-off is given here; in the data, active = GI50 up to about 1.1 µM and inactive = higher.
# Tests used:
# Assay in all cases: growth of human tumour cells (NCI), 48 h
# SR = test system: SR
# SK-OV-3 = test system: SK-OV-3
# T47D = test system: T47D
# MDA-N = test system: MDA-N
# U-251 = test system: U-251
# RPMI-8226 = test system: RPMI-8226
# K562 = test system: K562
# UACC-257 = test system: UACC-257
# HCC 2998 = test system: HCC 2998
# TK-10 = test system: TK-10
# EKVX = test system: EKVX
# SK-MEL-5 = test system: SK-MEL-5
# NCI-H522 = test system: NCI-H522
# OVCAR-4 = test system: OVCAR-4
# NCI-H460 = test system: NCI-H460
# OVCAR-5 = test system: OVCAR-5
# M14 = test system: M14
# NCI-H226 = test system: NCI-H226
# LXFL 529 = test system: LXFL 529
# MDA-MB-231 = test system: MDA-MB-231
SMILES,GI50 (SR),GI50 (SK-OV-3),GI50 (T47D),GI50 (MDA-N),GI50 (U-251),GI50 (RPMI-8226),GI50 (K562),GI50 (UACC-257),GI50 (HCC 2998),GI50 (TK-10),GI50 (EKVX),GI50 (SK-MEL-5),GI50 (NCI-H522),GI50 (OVCAR-4),GI50 (NCI-H460),GI50 (OVCAR-5),GI50 (M14),GI50 (NCI-H226),GI50 (LXFL 529),GI50 (MDA-MB-231)
O=c1oc2ccccc2c(O)c1C(C/C(CCN1CCCC1)=N/O)c1ccccc1 (configuration not stated),> 100 µM (inactive),> 100 µM (inactive),7.87 µM (inactive),> 100 µM (inactive),> 100 µM (inactive),> 94.8 µM (inactive),> 31.6 µM (inactive),> 100 µM (inactive),> 100 µM (inactive),> 100 µM (inactive),> 100 µM (inactive),> 100 µM (inactive),> 100 µM (inactive),> 100 µM (inactive),> 100 µM (inactive),> 100 µM (inactive),> 100 µM (inactive),> 100 µM (inactive),> 100 µM (inactive),> 100 µM (inactive)
CCOC(=O)/C(=C\c1ccccc1)C(=O)CCN1CCOCC1,2.1 µM (inactive),23 µM (inactive),16.3 µM (inactive),6.03 µM (inactive),8.55 µM (inactive),2.07 µM (inactive),1.57 µM (inactive),4.58 µM (inactive),17.8 µM (inactive),6.5 µM (inactive),15.6 µM (inactive),12.6 µM (inactive),1.67 µM (inactive),12.4 µM (inactive),14.4 µM (inactive),17.4 µM (inactive),6.67 µM (inactive),20.7 µM (inactive),1.84 µM (inactive),13.5 µM (inactive)
CCN(CC)CCNc1ccc2ncn3c4ccc(OC)cc4c(=O)c1c23,1.85 µM (inactive),7.71 µM (inactive),20 µM (inactive),5.18 µM (inactive),1.38 µM (inactive),1.21 µM (inactive),2.75 µM (inactive),11.9 µM (inactive),2.78 µM (inactive),10.4 µM (inactive),14.9 µM (inactive),6.07 µM (inactive),2.32 µM (inactive),1.74 µM (inactive),0.646 µM (active),8.61 µM (inactive),5.21 µM (inactive),4.31 µM (inactive),2.46 µM (inactive),
COc1cc(C2c3cc4c(cc3[C@@H](Nc3ccc5c(c3)OCCO5)C3COC(=O)[C@H]23)OCO4)cc(OC)c1O (some centres not stated),< 0.0364 µM (active),1.58 µM (inactive),,,0.516 µM (active),0.532 µM (active),0.413 µM (active),2.57 µM (inactive),1.1 µM (active),1.52 µM (inactive),2.87 µM (inactive),0.448 µM (active),0.301 µM (active),5.97 µM (inactive),0.0156 µM (active),2.22 µM (inactive),0.327 µM (active),0.295 µM (active),3.44 µM (inactive),16.4 µM (inactive)
CC(=O)CC[N+](C)(C)C,7.85 µM (inactive),26.7 µM (inactive),29.2 µM (inactive),40.7 µM (inactive),34.6 µM (inactive),5.94 µM (inactive),3.21 µM (inactive),25.8 µM (inactive),52.5 µM (inactive),27.6 µM (inactive),17.7 µM (inactive),30.3 µM (inactive),0.929 µM (active),14.8 µM (inactive),65.8 µM (inactive),44.6 µM (inactive),23 µM (inactive),53 µM (inactive),12.9 µM (inactive),21.3 µM (inactive)
